# Data from US20120028976A1, “PHARMACOKINETICALLY-BASED DOSING REGIMENTS OF A THROMBIN RECEPTOR ANTAGONIST” (priority 2008, published 2012).
# Read-outs that look alike come from different tables or passages of the source.
# Assays:
# [1] = Rising single dose (RSD) study: pharmacokinetics of orally administered COMPOUND 1 in healthy subjects; type: in vivo, human; conditions: for Cmax / AUC(0-t) / Tmax: po; for time for which plasma concentrations were quantifiable: LLOQ 0.1 ng/ml
# Text: (§1) Phase I clinical studies were designed to evaluate the pharmacokinetics of COMPOUND 1 in healthy subjects after rising single and multiple doses. The study included a randomized, evaluator-blind, placebo-controlled, rising single dose (“RSD”) study and a rising multiple dose (“RSM”) study of orally administered COMPOUND 1 in healthy subjects.
# (§2) In the single-dose study, 50 healthy males were enrolled into 6 sequential cohorts and randomized to receive in ascending dose manner placebo (n=2-3/group) or oral COMPOUND 1 (0.25, 1, 5, 10, 20 and 40 mg; n=5-6/group). In the multiple-dose study, 36 healthy subjects were enrolled into 3 sequential cohorts and randomized to receive in ascending-dose manner placebo (n=4/group) or oral COMPOUND 1(1, 3, and 5 mg OD in the morning for 28 days, n=8/group). A fourth cohort in the same study (n=12) was randomized to receive a single loading dose of COMPOUND 1, 10 mg (n=6) or 20 mg (n=6) on Day 1, followed by maintenance doses of 1 mg daily for 6 days. Measured and derived pharmacokinetic parameters were used to assess the pharmacokinetic profile. The doses were administered using appropriate combinations of the capsule formulations disclosed in Table 1.
# Several observations were made from the data collected in the RSD Study. […] Tmax ranged from 0.5 to 2 hrs after dosing.
# To estimate the terminal-phase half-life (t½) of COMPOUND 1, samples were collected from subjects in the 20 mg and 40 mg dose groups for up to 64 days after dosing. […] Plasma concentrations were quantifiable for up to 53 days in subjects administered 20 mg and up to 62 days in subjects administered 40 mg.
# clinical = conditions: human, in vivo
# Text: as §1, §2
# Variability was low to moderate.
# The RMD study also allowed evaluation of COMPOUND 1 accumulation. Mean accumulation index (R) values ranged from 4.72 to 6.37. The effective half-lives determined from R values ranged from 59.8 to 141 hrs.
# [2] = single oral dose 40 mg, maximum individual value
# [3] = single oral dose 40 mg, minimum individual value
compound,measurement,setting,value
CCOC(=O)N[C@@H]1CC[C@@H]2[C@@H](C1)C[C@H]1C(=O)O[C@H](C)[C@H]1[C@H]2/C=C/c1ccc(-c2cccc(F)c2)cn1 [COMPOUND 1],time to maximal plasma levels,[1]; across all doses in both studies (single and multiple oral dosing),60 to 90 min
same,half-life,"[1]; male, human, plasma, oral, subjects of the 20 mg and 40 mg single dose groups, samples up to 64 days after dosing, read-out: apparent terminal-phase half-life (t1/2)",126 to 269 h
same,Cmax,"[1]; male, human, plasma, 0.25 mg, single oral dose 0.25 mg, n=6, healthy males, plasma, mean (CV %), read-out: Cmax",2.23 ng/mL
same,AUC(0-t),"[1]; male, human, plasma, 0.25 mg, single oral dose 0.25 mg, n=6, mean (CV %), read-out: AUC(0-72 hr)",33.7 ng·h/mL
same,Tmax,"[1]; male, human, plasma, 0.25 mg, single oral dose 0.25 mg, n=6, value (range), read-out: Tmax",1 h
same,AUC(0-t),"[1]; male, human, plasma, 1 mg, single oral dose 1 mg, n=6, mean (CV %), read-out: AUC(0-72 hr)",142 ng·h/mL
same,Cmax,"[1]; male, human, plasma, 1 mg, single oral dose 1 mg, n=6, mean (CV %), read-out: Cmax",9.29 ng/mL
same,Tmax,"[1]; male, human, plasma, 1 mg, single oral dose 1 mg, n=6, value (range), read-out: Tmax",1.25 h
same,AUC(0-t),"[1]; male, human, plasma, 5 mg, single oral dose 5 mg, n=6, mean (CV %), read-out: AUC(0-72 hr)",740 ng·h/mL
same,Cmax,"[1]; male, human, plasma, 5 mg, single oral dose 5 mg, n=6, mean (CV %), read-out: Cmax",51.4 ng/mL
same,Tmax,"[1]; male, human, plasma, 5 mg, single oral dose 5 mg, n=6, value (range), read-out: Tmax",0.75 h
same,AUC(0-t),"[1]; male, human, plasma, 10 mg, single oral dose 10 mg, n=6, mean (CV %), read-out: AUC(0-72 hr)",1510 ng·h/mL
same,Cmax,"[1]; male, human, plasma, 10 mg, single oral dose 10 mg, n=6, mean (CV %), read-out: Cmax",99.2 ng/mL
same,Tmax,"[1]; male, human, plasma, 10 mg, single oral dose 10 mg, n=6, value (range), read-out: Tmax",1.5 h
same,AUC(0-t),"[1]; male, human, plasma, 20 mg, single oral dose 20 mg, n=5, mean (CV %), read-out: AUC(0-72 hr)",3350 ng·h/mL
same,Cmax,"[1]; male, human, plasma, 20 mg, single oral dose 20 mg, n=5, mean (CV %), read-out: Cmax",183 ng/mL
same,Tmax,"[1]; male, human, plasma, 20 mg, single oral dose 20 mg, n=5, value (range), read-out: Tmax",1.5 h
same,Tmax,"[1]; male, human, plasma, 40 mg, loading dose 40 mg, single oral (Table 3), read-out: Tmax range",0.5 to 1.5 h
same,AUC(0-t),"[1]; male, human, plasma, 40 mg, loading dose 40 mg, single oral, range of individual values (Table 3), read-out: AUC(0-72 hr) range",4740 to 7510 ng·h/mL
same,Cmax,"[1]; male, human, plasma, 40 mg, loading dose 40 mg, single oral, range of individual values (Table 3), read-out: Cmax range",238 to 511 ng/mL
same,AUC(0-t),"[1]; male, human, plasma, 40 mg, single oral dose 40 mg, n=5, mean (CV %), read-out: AUC(0-72 hr), Mean",~6030 ng·h/mL
same,Cmax,"[1]; male, human, plasma, 40 mg, single oral dose 40 mg, n=5, mean (CV %), read-out: Cmax, Mean",~376 ng/mL
same,Tmax,"[1]; male, human, plasma, 40 mg, single oral dose 40 mg, n=5, value (range), read-out: Tmax, Mean",1.5 h
same,Tmax,"[1]; male, human, plasma, 40 mg, single oral dose 40 mg, Tmax corresponding to maximum individual Cmax, read-out: Tmax, Max",1.5 h
same,Tmax,"[1]; male, human, plasma, 40 mg, single oral dose 40 mg, Tmax corresponding to minimum individual Cmax, read-out: Tmax",0.5 h
same,Tmax,"[1]; male, human, plasma, single oral doses 0.25 to 40 mg, all dose groups, read-out: Tmax range after dosing",0.5 to 2 h
same,dose relation of exposure,"[1]; single doses up to 40 mg, FIG. 2",dose related
same,time for which plasma concentrations were quantifiable,[1]; single oral dose 20 mg,up to 53 days
same,time for which plasma concentrations were quantifiable,[1]; single oral dose 40 mg,up to 62 days
same,"AUC(0-72 hr), Max",[1]; [2],7508 ng·h/mL
same,"Cmax, Max",[1]; [2],511 ng/mL
same,"AUC(0-72 hr), Min",[1]; [3],4745 ng·h/mL
same,"Cmax, Min",[1]; [3],238 ng/mL
same,coefficient of variability (CV) for AUC(0-24 h),clinical,14-34%
same,dose relation of exposure,clinical,increased in a dose-related manner
same,AUC(0-24 hr) Mean,clinical; 1 mg,58.5 ng·h/mL
same,Cmax Mean,clinical; 1 mg,9.78 ng/mL
same,AUC(0-24 hr) Mean,clinical; 3 mg,225 ng·h/mL
same,Cmax,"clinical; 3 mg, Cmax Mean",38.2 ng/mL
same,Tmax,"clinical; 3 mg, Tmax Median",1 h
same,AUC(0-24 hr) Mean,clinical; 5 mg,315 ng·h/mL
same,Cmax Mean,clinical; 5 mg,56.4 ng/mL
same,effective half-lives determined from R values,clinical; 5 mg,60 to 141 h
same,Tmax,"clinical; 5 mg, Tmax Median",1 h
same,half-life,"clinical; 5 mg, effective half-lives determined from R values",59.8 to 141 h
same,"Mean accumulation index (R) values, range over dose groups",clinical; 28 days,4.72-6.37
same,half-life,"clinical; Mean terminal-phase half-life (t1/2), range over dose groups",173 to 269 h
same,Tmax,"clinical; Median Tmax values, range over dose groups",1 to 1.5 h
same,Tmax,clinical; Tmax Median,1 h
